The values that follow come from ChEMBL document CHEMBL4229469, “Small molecule scaffolds that disrupt the Rev1-CT/RIR protein-protein interaction” (Bioorg Med Chem, 2018).

What is called GI50 is the concentration that inhibits growth by half. One may read the inhibition as the relative decrease from the control value, in per cent. In general, solubility refers to the concentration that dissolves in the medium under given conditions. The low end stands for a poorly soluble substance, the high end for a readily soluble substance. By IC50 is commonly meant the point on the concentration scale where inhibition reaches its midpoint. The term Kd denotes the free concentration of one partner at which half of the binding sites on the other are occupied at equilibrium, for simple one-to-one binding. By Ki is commonly meant a dissociation constant, usually derived from enzyme kinetics or from competition with a known ligand.

Converted amounts (≈) assume the structure as drawn.

Data set [1] deals with U2OS. As to the kind of experiment: Potentiation of cisplatin-induced cytotoxicity in cisplatin-resistant human U2OS cells assessed as cisplatin GI50 at 25 uM after 72 hrs by MTS assay (reference value: 23.9 +/- 1.9 uM). It is filed as functional. In general terms: Tetrazolium assays rely on reduction of a dye to a coloured formazan, in cell work by metabolically active cells.

The subject of data set [2] is U2OS. Put plainly: Potentiation of cisplatin-induced cytotoxicity in cisplatin-resistant human U2OS cells assessed as cisplatin GI50 at 50 uM after 72 hrs by MTS assay (reference value: 23.9 +/- 1.9 uM). The class given is functional.
The target in data set [3] is T1, DNA repair protein REV1 (Homo sapiens) (UniProt Q9UBZ9).
T1 sequence (whole entry): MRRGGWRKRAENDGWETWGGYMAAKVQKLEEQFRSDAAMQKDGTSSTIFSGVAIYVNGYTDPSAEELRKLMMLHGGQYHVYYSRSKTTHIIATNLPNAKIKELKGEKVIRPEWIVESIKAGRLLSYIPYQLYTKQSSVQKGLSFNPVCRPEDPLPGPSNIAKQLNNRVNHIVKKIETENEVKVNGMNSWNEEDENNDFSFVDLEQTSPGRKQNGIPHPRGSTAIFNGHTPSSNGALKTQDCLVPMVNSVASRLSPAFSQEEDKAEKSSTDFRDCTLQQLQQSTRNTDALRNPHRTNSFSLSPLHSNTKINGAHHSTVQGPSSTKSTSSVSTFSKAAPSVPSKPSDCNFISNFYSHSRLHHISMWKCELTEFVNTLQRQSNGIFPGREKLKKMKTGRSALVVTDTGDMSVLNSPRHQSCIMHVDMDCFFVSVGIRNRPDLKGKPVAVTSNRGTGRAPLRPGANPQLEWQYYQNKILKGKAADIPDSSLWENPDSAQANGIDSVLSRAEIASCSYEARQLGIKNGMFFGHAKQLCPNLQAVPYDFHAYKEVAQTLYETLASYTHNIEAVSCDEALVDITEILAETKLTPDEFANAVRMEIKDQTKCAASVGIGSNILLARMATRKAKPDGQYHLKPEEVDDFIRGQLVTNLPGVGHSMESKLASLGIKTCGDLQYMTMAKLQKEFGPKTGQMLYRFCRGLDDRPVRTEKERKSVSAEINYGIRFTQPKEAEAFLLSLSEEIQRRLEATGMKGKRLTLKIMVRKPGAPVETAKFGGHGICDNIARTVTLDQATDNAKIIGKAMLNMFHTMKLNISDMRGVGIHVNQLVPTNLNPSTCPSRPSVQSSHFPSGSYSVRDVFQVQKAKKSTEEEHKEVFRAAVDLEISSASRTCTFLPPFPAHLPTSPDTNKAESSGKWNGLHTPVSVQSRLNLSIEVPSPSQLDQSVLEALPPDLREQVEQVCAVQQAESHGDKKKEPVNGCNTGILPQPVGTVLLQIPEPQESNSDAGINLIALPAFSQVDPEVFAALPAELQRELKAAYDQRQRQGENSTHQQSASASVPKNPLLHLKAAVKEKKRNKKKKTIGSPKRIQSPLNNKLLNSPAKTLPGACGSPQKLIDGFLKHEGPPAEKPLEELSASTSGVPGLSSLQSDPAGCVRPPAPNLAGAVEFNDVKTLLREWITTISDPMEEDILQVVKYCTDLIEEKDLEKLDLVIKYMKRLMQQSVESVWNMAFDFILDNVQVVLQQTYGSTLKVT
As to the kind of experiment: Displacement of FAM-labelled polkappa-RIR peptide from recombinant human C-terminal Rev1 (1158 to 1251 residues) expressed in Escherichia coli BL21(DE3) at 10 uM after 1 hr by fluorescence polarization assay relative to control. (Fluorescence polarisation rises when a labelled molecule tumbles more slowly, as on binding a larger partner.)

Data set [4] can be described thus: Growth inhibition of cisplatin-resistant human U2OS cells after 72 hrs by MTS assay. The class given is cell-based.
The nature of data set [5]: Solubility of the compound in pH 7.4 phosphate buffered saline.
Data set [6] in a line: Solubility of the compound in pH 4 phosphate buffered saline.
Data set [7] is described as follows: Drug metabolism in human liver microsomes assessed as hydrolysis by measuring methyl 2-(piperidine-4-carboxamido)-5-propylthiophene-3-carboxylate formation at 10 uM after 30 to 60 mins by LC-MS/MS analysis. The class given is ADME, microsome. (Microsomes from liver hold many membrane-bound enzymes, among them those of drug oxidation.)
The nature of data set [8]: Permeability of the compound by PAMPA. The class given is ADME.
Data set [9] is described as follows: Stability of the compound in pH 7.4 phosphate buffered saline assessed as parent compound remaining at 5 uM. It is filed as physicochemical. The following applies: read-out: Stability.
Data set [10] is described as follows: Intrinsic clearance in human liver microsomes at 1 uM. The class given is ADME, microsome.
Data set [11] in a line: Ratio of solubility in pH 7.4 phosphate buffered saline to pH 4 phosphate buffered saline. The class given is physicochemical. The following applies: buffer.
Data set [12] in a line: Drug metabolism in human liver microsomes assessed as oxidation at 10 uM after 30 to 60 mins by LC-MS/MS analysis. The class given is ADME, microsome.
Data set [13] can be described thus: Drug metabolism in human liver microsomes assessed as oxidation and dehydrogenation at 10 uM after 30 to 60 mins by LC-MS/MS analysis. The class given is ADME, microsome.
Data set [14] can be described thus: Drug metabolism in human liver microsomes assessed as dehydrogenation at 10 uM after 30 to 60 mins by LC-MS/MS analysis. It is filed as ADME, microsome.
The target in data set [15] is T2, DNA repair protein REV1 (Homo sapiens, UniProt Q9UBZ9).
T2 sequence (Q9UBZ9 whole entry): T1 sequence (whole entry)
Put plainly: Displacement of FAM-labelled polkappa-RIR peptide from recombinant human C-terminal Rev1 (1158 to 1251 residues) expressed in Escherichia coli BL21(DE3) after 1 hr by fluorescence polarization assay.

A short description of data set [16]: Drug metabolism in human liver microsomes assessed as demethylation by measuring 2-(1-acetylpiperidine-4-carboxamido)-5-propylthiophene-3-carboxylic acid formation at 10 uM after 30 to 60 mins by LC-MS/MS analysis. It is filed as ADME, microsome.

On to `CCCc1cc(C(=O)OC)c(NC(=O)C2CCN(C(C)=O)CC2)s1`, for which the GI50 amounted to 12.6 µM in data set [1] and 19.6 µM in data set [2]. Moreover, in data set [3], the inhibition is above 85%. In addition, in data set [4], the GI50 at 72 h was above 100 µM. Also, the solubility came out at 63.3 µM (≈ 22.3 µg/mL) in [5] and 21.1 µM (≈ 7.44 µg/mL) in data set [6]. In addition, the Drug metabolism entry in data set [7], in [12], in [13], in [14] and in data set [16] was “Metabolite_Detected” in each case. Besides, the “log(permeability)” value in [8] was -4.5. In addition, the remaining at 5 µM in data set [9] stood at 95%. For the same compound, the CLH in [10] amounted to 18.8 µL/min/mg. For the same compound, in [11], the Ratio was 3. The IC50 in data set [15] is 4.1 µM. Further, the dissociation constant (Kd) in [15] came out at 3.5 µM. Further, the inhibitory constant (Ki) in data set [15] was 3.6 µM.
